{"source": "patent US7041675B2", "about": "“Heterocyclic compounds and their use as PARP inhibitors” (Abbott GmbH & Co. KG, priority 2000, dated 2006)", "origin": "cited, not measured here", "system": "model of circulatory shock", "conditions": "S. Cuzzocrea et al., Br. J. Pharmacol. 1997"}
{"smiles": "NC(=O)c1cccc(N)c1", "note": "[3-aminobenzamide]", "values": [{"measurement": "protective effects in a model of circulatory shock", "value": "protective effects"}]}
